Results published in US20090087845A1, “Genetic Markers Of True Low Birth Weight” (priority 2005, published 2009).
Values joined by “and” are separate entries in the source; they are usually repeats but may differ in a detail not shown here. Equal entries are not always repeated.

Test system: placental gene expression
Assay: Placental gene expression (Affymetrix Rat Genome Chip 230.2) after SSRI (fluoxetine) exposure throughout gestation
Type: in vivo
Conditions: SSRI exposure during gestation
Description: Gene expression data from pregnant rats under different forms of dietary restriction was gathered. […] (N=8) • Group 2 (CR50): Rats Given 50% of their Normal Daily Intake of Food. (N=5) • Group 3 (CR70): Rats Given 70% of their Normal Daily Intake of Food. […] (N=6) Placentas from the rats of each Group were harvested on Day 21 of gestation. RNA was extracted and gene expression was measured based on hybridization of RNA to Affymetrix Rat Genome Chips™ (230.2) (Affymetrix, Santa Clara, Calif.).
In order to determine whether placental gene expression profiling can be used to identify other prenatal exposures such as toxicants and drugs, a group of rats with drug exposure was monitored as described above. […] As with control, CR50, CR70, and HF groups, placentas from the mothers were sampled after 21 days of gestation and gene expression monitored utilizing an Affymetrix Rat Genome Chip.

Compound: CNCCC(Oc1ccc(C(F)(F)F)cc1)c1ccccc1 (stereo not shown) [fluoxetine, Fluoxetine]
- Probeset 1367856_at expression: 9.227 and 9.529 and 9.365 and 9.385 and 9.39 and 9.762
- Probeset 1367877_at expression: 10.9 and 11 and 11.21 and 11.25 and 10.7225 and 10.35
- Probeset 1368083_at expression: 8.132 and 7.967 and 8.206 and 8.272 and 8.391 and 8.145
- Probeset 1368824_at expression: 8.826 and 8.855 and 9.531 and 9.13 and 8.806 and 9.976
- Probeset 1369754_a_at expression: 8.0392 and 8.245 and 7.92 and 7.959 and 8 and 8.033
- Probeset 1369775_at expression: 8.114 and 8.469 and 8.777 and 8.329 and 7.897 and 9.185
- Probeset 1370293_at expression: 5.003 and 5.146 and 4.947 and 4.866 and 4.888 and 5.155
- Probeset 1370317_at expression: 8.087 and 8.102 and 8.255 and 8.308 and 8.15 and 8.491
- Probeset 1370521_at expression: 8.446 and 8.335 and 8.321 and 8.443 and 8.486 and 8.352
- Probeset 1370682_at expression: 5.234 and 5.326 and 5.095 and 5.171 and 5.242 and 5.482
- Probeset 1370766_at expression: 4.942 and 4.938 and 5.166 and 5.489 and 5.322 and 4.712
- Probeset 1370918_a_at expression: 11.31 and 11.2792 and 11.25 and 11.37 and 11.45 and 11.49
- Probeset 1370983_at expression: 5.843
- Probeset 1371435_at expression: 11.01 and 10.91 and 11.23 and 11.08 and 10.99 and 11.27
- Probeset 1372141_at expression: 9.139 and 9.134 and 9.292 and 9.347 and 9.239 and 9.295
- Probeset 1373319_at expression: 9.055 and 9.237 and 9.183 and 9.332 and 9.182 and 9.352
- Probeset 1373396_at expression: 9.155 and 8.864 and 9.203 and 9.102 and 8.933 and 8.366
- Probeset 1373572_at expression: 7.868 and 7.822 and 7.63 and 7.991 and 8.104 and 8.161
- Probeset 1373647_at expression: 8.371 and 8.23 and 8.672 and 8.447 and 8.268 and 8.235
- Probeset 1373702_at expression: 8.332 and 8.305 and 8.162 and 8.514 and 8.322 and 7.814
- Probeset 1373804_at expression: 6.825 (2×) and 6.702 and 7.208 and 7.238 and 7.527
- Probeset 1374112_at expression: 6.448 and 6.479 and 6.686 and 6.529 and 6.5 and 6.601
- Probeset 1374739_at expression: 8.91 and 8.84 and 9.07 and 9.074 and 8.858 and 8.669
- Probeset 1375178_at expression: 5.861 and 5.694 and 5.836 and 5.574 and 5.873 and 5.942
- Probeset 1375407_at expression: 4.147 and 4.198 and 4.162 and 4.179 and 4.18 and 4.21
- Probeset 1376294_at expression: 8.241 and 8.136 and 8.122 and 8.206 and 8.031 and 7.939
- Probeset 1376622_at expression: 9.179 and 9.106 and 9.158 and 9.007 and 8.828 and 8.85
- Probeset 1376661_at expression: 9.243 and 8.93 and 9.166 and 9.213 and 9.04 and 8.674
- Probeset 1377210_at expression: 5.248 and 4.863 and 5.701 and 5.485 and 5.015 and 5.172
- Probeset 1377365_at expression: 4.943 and 5.014 and 4.818 and 5.177 and 5.084 and 4.987
- Probeset 1377621_at expression: 9.058 and 9.148 and 9.272 and 8.936 and 8.844 and 9.114
- Probeset 1377746_at expression: 6.748 and 6.563 and 6.855 and 6.829 and 6.772 and 6.746
- Probeset 1378200_at expression: 3.497 and 3.656 and 3.453 and 3.611 and 3.537 and 3.653
- Probeset 1378318_at expression: 7.345 and 7.18 and 7.153 and 7.373 and 7.289 and 7.671
- Probeset 1378906_at expression: 4.061 and 4.197 and 4.196 and 4.263 and 4.048 and 4.099
- Probeset 1378992_at expression: 3.715 and 3.63 and 3.611 and 3.744 and 3.567 and 3.655
- Probeset 1379691_at expression: 5.195 and 5.15 and 5.65 and 5.355 and 5.021 and 5.425
- Probeset 1379822_at expression: 4.426 and 4.487 and 4.337 and 4.483 and 4.602 and 4.654
- Probeset 1379827_at expression: 7.363 and 6.823 and 7.052 and 7.077 and 7.08 and 7.626
- Probeset 1379963_at expression: 6.946 and 6.646 and 6.73 and 6.72 and 6.71 and 6.95
- Probeset 1380175_at expression: 5.161 (2×) and 4.962 and 5.291 and 5.16 and 5.03
- Probeset 1380454_at expression: 6.241 and 5.984 and 6.009 and 5.948 and 5.974 and 6.055
- Probeset 1380887_at expression: 4.924
- Probeset 1381074_at expression: 4.46 and 4.412
- Probeset 1381130_at expression: 3.907 and 4.131 and 4.062 and 4.007 and 3.997 and 4.159
- Probeset 1381286_at expression: 5.782 and 5.606 and 5.685 and 5.499 and 5.475 and 5.605
- Probeset 1381456_at expression: 5.51 and 5.294 and 5.392 and 5.362 and 5.479 and 5.538
- Probeset 1381492_at expression: 3.395 and 3.359 and 3.315 and 3.411 and 3.371 and 3.465
- Probeset 1381950_at expression: 3.272 and 3.248 and 3.336 and 3.304 and 3.319 and 3.328
- Probeset 1382156_at expression: 4.657 and 4.812 and 4.826 and 4.712 and 4.874 and 4.952
- Probeset 1382513_at expression: 6.674 and 6.665 and 6.481 and 6.607 and 6.737 and 6.659
- Probeset 1382670_at expression: 8.608 and 8.307 and 8.399 and 8.688 and 8.346 and 8.2197
- Probeset 1383054_at expression: 8.808 and 9.017 and 9.07 and 8.991 and 8.711 and 9.326
- Probeset 1383300_at expression: 8.006 and 8.007 and 8.362 and 8.2749 and 8.022 and 8.359
- Probeset 1383309_at expression: 8.849 and 8.69 and 8.969 and 8.891 and 8.934 and 8.618
- Probeset 1383329_at expression: 5.895 and 5.614 and 5.92 and 5.669 and 5.593 and 5.826
- Probeset 1383443_at expression: 5.684 and 5.567 and 5.755 and 5.468 and 5.752 and 5.677
- Probeset 1383599_at expression: 8.081 and 7.626 and 7.843 and 7.829 and 8.127 and 9.642
- Probeset 1383670_at expression: 6.71 and 6.607 and 6.621 and 6.709 and 6.712 and 7.383
- Probeset 1384367_at expression: 5.722 and 5.628 and 5.604 and 6.025 and 5.735 and 5.669
- Probeset 1384528_at expression: 6.295 and 6.64 and 6.851 and 6.656 and 6.5 and 7.042
- Probeset 1384573_at expression: 8.901 and 8.97 and 9.056 and 9.081 and 8.766 and 9.188
- Probeset 1384849_at expression: 4.389 and 4.321 and 4.282 and 4.323 and 4.508 and 4.489
- Probeset 1385074_at expression: 5.671 and 5.563 and 5.768 and 5.526 and 5.195 and 5.636
- Probeset 1385113_at expression: 7.347 and 7.428 and 7.301 and 7.161 and 7.417 and 7.088
- Probeset 1385137_at expression: 6.487 and 6.691 and 6.525 and 6.507 and 6.657 and 6.515
- Probeset 1385290_at expression: 5.912 and 5.666 and 5.934 and 5.765 and 5.855 and 6.05
- Probeset 1385386_at expression: 3.88 and 3.887 and 3.724 and 3.939 and 3.964 and 3.997
- Probeset 1385391_at expression: 3.906
- Probeset 1385676_at expression: 7.767 and 7.784 and 7.6 and 7.923 and 7.825 and 7.957
- Probeset 1385790_at expression: 8.874 and 8.703 and 8.936 and 8.711 and 8.797 and 8.832
- Probeset 1385967_at expression: 7.8281 and 7.604 and 7.783 and 7.853 and 7.739 and 7.587
- Probeset 1386125_at expression: 6.722 and 6.815 and 6.394 and 6.647 and 6.915 and 6.555
- Probeset 1387136_at expression: 6.858 and 6.879 and 6.716 and 6.836 and 6.917 and 6.91
- Probeset 1387693_a_at expression: 6.346 and 5.564 and 5.898 and 6.298 and 6.19 and 6.092
- Probeset 1387694_at expression: 4.568 (2×) and 4.709 and 4.717 and 4.669 and 4.592
- Probeset 1387822_at expression: 6.542 and 6.446 and 6.117 and 6.626 and 6.634 and 6.309
- Probeset 1387836_at expression: 6.084 and 6.195 and 5.76 and 6.333 and 6.223 and 6.427
- Probeset 1387914_at expression: 7.114 and 7.095 and 6.97 and 7.203 and 7.171 and 6.743
- Probeset 1388091_at expression: 4.883 and 4.896 and 4.86 and 4.66 and 4.763 and 5.101
- Probeset 1388131_at expression: 5.883 and 5.853 (2×) and 5.899 and 5.7 and 5.653
- Probeset 1388363_at expression: 8.334 and 8.137 and 8.387 and 8.484 and 8.155 and 8.23
- Probeset 1388396_at expression: 8.583 and 8.468 and 8.633 and 8.876 and 8.642 and 8.158
- Probeset 1388669_at expression: 7.593 and 7.653 and 7.716 and 7.739 and 7.557 and 7.506
- Probeset 1389095_at expression: 4.796 and 4.404 and 4.732 and 4.907 and 5.027 and 4.473
- Probeset 1389213_at expression: 8.131 and 8.028 and 7.745 and 7.914 and 8.246 and 8.135
- Probeset 1389599_at expression: 7.15 and 6.872 and 6.834 and 7.063 and 7.294 and 6.817
- Probeset 1389938_at expression: 3.471 and 3.408 and 3.488 and 3.5 and 3.516 and 3.49
- Probeset 1390406_at expression: 10.34 and 10.3557 and 10.5 and 10.19 and 10.46 and 10.31
- Probeset 1390477_at expression: 5.455 and 5.297 and 5.408 and 5.153 and 5.575 and 5.333
- Probeset 1390592_at expression: 7.922 and 8.042 and 8.388 and 8.1 and 7.908 and 8.783
- Probeset 1390603_at expression: 7.171 and 7.008 and 7.6 and 6.976 and 7.243 and 7.286
- Probeset 1390649_at expression: 7.938 and 7.688 and 7.673 and 7.791 and 7.858 and 7.491
- Probeset 1390892_at expression: 5.596 and 5.604 and 5.507 and 5.408 and 5.571 and 5.5082
- Probeset 1391078_at expression: 8.106 and 8.271 and 8.74 and 8.604 and 8.221 and 9.079
- Probeset 1391283_at expression: 5.834 and 5.874 and 5.96 and 5.702 and 5.598 and 5.898
- Probeset 1391376_at expression: 7.65 and 7.982 and 7.683 and 7.518 and 7.491 and 7.602
